From paper PMC7216583 (Parasites & Vectors, 2020)
Counter-ions that a name gives are not always drawn. Like-named read-outs stand apart in the source and are kept apart here.

Columns and labels:
[1] = system: Toxoplasma gondii RH-2F tachyzoites; test: microbe, parasite or virus in culture; details: 72 h; for inhibition at 5 µM: read-out: Parasite inhibition (%) Mean ± SD
in vitro = details: human
[2] = read-out: Parasite inhibition (%) mean, preliminary screen, mean
[3] = read-out: Parasite inhibition (%) mean, preliminary screen of compound library, mean
[4] = read-out: Parasite inhibition (%) mean

| SMILES | inhibition of growth at 5 µM [1, 2] | inhibition of growth at 5 µM [1, 3] | also measured |
| --- | --- | --- | --- |
| COc1cc2c(Nc3ccc(NC(=O)c4ccccc4)cc3)ncnc2cc1OCCCN1CCOCC1 [ZM-447439] | 70.2% |  | viability at 72 h (in vitro; Host viability (%) mean): 31.2% |
| CN(C)c1ccc(-c2nc3c(N4CCN(CC(=O)Nc5nccs5)CC4)c(Cl)cnc3[nH]2)cc1 [CCT129202] | 85.6% |  | viability at 72 h (in vitro; Host viability (%) mean): 42.6% |
| CNC(=O)c1ccc(-c2cnc3ncc(Cc4ccc5ncccc5c4)n3n2)cc1F [INCB28060] |  | 89.8% | viability (in vitro): 46.3% |
| O=C1CCC[C@@H]2[C@@H]3CCCN4CCC[C@H](CN12)[C@@H]34 [Matrine ((+)-Matrine)] |  | 78.7% | viability at 72 h (in vitro; uninfected human foreskin fibroblasts (HFFs)): 19.6% |
| Oc1cc(O)c(Cl)cn1 [Gimeracil] | 70.8% |  | viability at 72 h (in vitro; Host viability (%) mean): 75.6% |
| C[C@]1(O)C[C@@H](c2nc(-c3ccc4ccc(-c5ccccc5)nc4c3)c3c(N)nccn32)C1 [Linsitinib (OSI-906)] | 78.8% |  | viability at 72 h (in vitro; Host viability (%) mean): 72.2% |
| CNC1CCCN(c2c(F)cc3c(=O)c(C(=O)O)cn(C4CC4)c3c2OC)C1 (centres unmarked) [Balofloxacin] |  | 71.8% | viability at 72 h (in vitro; Host viability (%) mean): 76.4% |
| Nc1ccccc1NC(=O)c1ccc(CNc2nccc(-c3cccnc3)n2)cc1 [Mocetinostat (MGCD0103)] | 86.5% |  | viability at 72 h (in vitro; Host viability (%) mean): 80.2% |
| O=C(C[S+]([O-])Cc1ccco1)NC/C=C\COc1cc(CN2CCCCC2)ccn1 (centres unmarked) [Lafutidine, reference compound] |  |  | inhibition at 5 µM [1]: 70.6 ± 2.5%; viability at 72 h, 5 µM (in vitro; Host viability (%) Mean ± SD): 92.7 ± 5.6%; viability at 72 h (in vitro; Host viability (%) mean): 92.7% |
| Nc1nc2[nH]cc(CCc3ccc(C(=O)N[C@@H](CCC(=O)O)C(=O)O)cc3)c2c(=O)[nH]1 [Pemetrexed disodium, reference compound] |  |  | viability at 72 h, 5 µM (in vitro): 84.6 ± 1.5% |
| Nc1ccccc1NC(=O)c1ccc(CNC(=O)OCc2cccnc2)cc1 [Entinostat (MS-275, SNDX-275)] | 75.7% |  | viability at 72 h (in vitro; Host viability (%) mean): 81.6% |
| C=C[C@H]1C[N@@]2CC[C@H]1C[C@H]2[C@H](O)c1ccnc2ccc(OC)cc12 [Quinine hydrochloride dihydrate] |  | 78.9% | viability (in vitro): 79.4% |
| CN1CCC(=C2c3ccccc3C=Cc3ccccc32)CC1 [Cyproheptadine HCl (Periactin)] |  |  | viability at 72 h (in vitro; uninfected human foreskin fibroblasts (HFFs), Host viability (%) mean, preliminary screen, mean): 90.6% |
| CN1CCC(=C2c3ccccc3C=Cc3ccccc32)CC1 [Cyproheptadine HCl, reference compound] |  |  | viability at 72 h, 5 µM (in vitro; Host viability (%) Mean ± SD): 90.6 ± 1.2% |
| Nc1ccccc1NC(=O)c1ccc(CNC(=O)OCc2cccnc2)cc1 [Entinostat, reference compound] |  |  | inhibition at 5 µM [1]: 75.7 ± 2.2%; viability at 72 h, 5 µM (in vitro; Host viability (%) Mean ± SD): 81.6 ± 1.5% |
| OCCn1cc(-c2cnc3nnn(Cc4ccc5ncccc5c4)c3n2)cn1 [PF-04217903] |  |  | inhibition of growth at 5 µM [1, 4]: 88.6%; viability at 72 h (in vitro): 65% |
| CCN1CCN(c2cc(-c3ccc(F)cc3)c3c(n2)CCCCCC3)CC1 [Blonanserin, reference compound] |  |  | inhibition at 5 µM [1]: 82.1 ± 3.1%; viability at 72 h, 5 µM (in vitro; Host viability (%) Mean ± SD): 88.3 ± 5.9% |
| CC[C@]12C=CCN3CCC4(c5cc([C@@]6(C(=O)OC)C[C@H]7C[C@@H](C(C)(F)F)CN(Cc8c6[nH]c6ccccc86)C7)c(OC)cc5N(C)[C@H]4[C@@](O)(C(=O)OC)[C@@H]1OC(C)=O)C32 (stereo in doubt) [Vinflunine Tartrate] | 83.2% |  | viability (in vitro): 60.8% |
| COc1cc2c(Nc3ccc(Br)cc3F)ncnc2cc1OCC1CCN(C)CC1 [Vandetanib (Zactima)] | 80.2% |  | viability at 72 h (in vitro): 79.5% |
| CN(C)Cc1c(C(=O)NCCOc2ccc(C(=O)NO)cc2)oc2ccccc12 [PCI-24781] | 82.7% |  | viability at 72 h (in vitro; Host viability (%) mean): 33.8% |
| Cc1cccc(C(C)c2cnc[nH]2)c1C (centres unmarked) [Medetomidine HCl, reference compound] |  |  | inhibition at 5 µM [1]: 70.8 ± 1.5%; viability (in vitro): 90.5%; viability at 5 µM (in vitro): 90.5 ± 4.4% |

| SMILES | inhibition of growth at 5 µM [1, 2] | inhibition of growth at 5 µM [1, 3] | also measured |
| --- | --- | --- | --- |
| C[C@@H](Oc1cc(-c2cnn(C3CCNCC3)c2)cnc1N)c1c(Cl)ccc(F)c1Cl [Crizotinib (PF-02341066)] | 86.8% |  | viability (in vitro): 43.6% |
| CC(C)C[C@@H](C(=O)N[C@H](C(=O)OC1CCCC1)c1ccccc1)[C@H](O)C(=O)NO [CHR2797, reference compound] |  |  | inhibition at 5 µM [1]: 85.6 ± 1.8%; viability at 72 h, 5 µM (in vitro; Host viability (%) Mean ± SD): 88.8 ± 6.7% |
| C=CC(=O)N1CCC[C@@H](n2nc(-c3ccc(Oc4ccccc4)cc3)c3c(N)ncnc32)C1 [PCI-32765 (Ibrutinib)] |  | -0.8% |  |
| CN1CCN2c3ncccc3Cc3ccccc3C2C1 (centres unmarked) [Mirtazapine (Remeron, Avanza)] |  | 33.1% |  |
| CC[C@H](CO)Nc1nc(NCc2ccccc2)c2ncn(C(C)C)c2n1 [Roscovitine (Seliciclib, CYC202)] | 12.2% |  |  |
| NC(=O)Cc1cccc(C(=O)c2ccccc2)c1N [Nepafenac] |  | -10.3% |  |
| CCNC(=O)[C@H]1O[C@@H](n2cnc3c(N)nc(NCCc4ccc(CCC(=O)O)cc4)nc32)[C@@H](O)[C@@H]1O [CGS 21680 HCl] | 0.9% |  |  |
| C#C[C@]1(O)C=C[C@H]2[C@@H]3CCC4=CC(=O)CC[C@@H]4[C@H]3CC[C@@]21CC [Gestodene] | 0.6% |  |  |
| CC(=O)Nc1ccc(OC[C@](C)(O)C(=O)Nc2ccc([N+](=O)[O-])c(C(F)(F)F)c2)cc1 [Andarine (GTX-007)] | -18.7% |  |  |
| Cc1cc(Nc2cc(N3CCN(C)CC3)nc(Sc3ccc(NC(=O)C4CC4)cc3)n2)n[nH]1 [VX-680 (MK-0457, Tozasertib)] | 70.7% |  | viability at 72 h (in vitro; Host viability (%) mean): 34.7% |
| Cc1c(C(=O)NN2CCCCC2)nn(-c2ccc(Cl)cc2Cl)c1-c1ccc(Cl)cc1 [Rimonabant (SR141716)] |  | 5.1% |  |
| C[C@H](N[C@@H](CCc1ccccc1)C(=O)O)C(=O)N1CCC[C@H]1C(=O)O [Enalaprilat dihydrate] | 33.9% |  |  |
| Nc1ncnc2nc[nH]c12 [Adenine sulfate] |  |  | inhibition of growth at 5 µM [1, 4]: 11.8% |
| CC(C)OC(=O)OCOP(=O)(CO[C@H](C)Cn1cnc2c(N)ncnc21)OCOC(=O)OC(C)C [Tenofovir Disoproxil Fumarate] | 0.5% |  |  |
| COc1ccc(Cl)cc1C(=O)NCCc1ccc(S(=O)(=O)NC(=O)NC2CCCCC2)cc1 [Glyburide (Diabeta)] |  | 1.9% |  |
| CN(C)C/C=C/C(=O)Nc1cc2c(Nc3ccc(F)c(Cl)c3)ncnc2cc1O[C@H]1CCOC1 [Afatinib (BIBW2992)] | 42.8% |  |  |
| CNC(=O)c1ccc(N2C(=S)N(c3cnc(C#N)c(C(F)(F)F)c3)C(=O)C23CCC3)cc1F [ARN-509] |  | 28.7% |  |
| Nc1ccc(-c2ccc3ncc4ccc(=O)n(-c5cccc(C(F)(F)F)c5)c4c3c2)cn1 [Torin 2] |  | 25.1% |  |
| CN1CCN(C(=O)c2cc3cc(Cl)ccc3[nH]2)CC1 [JNJ-7777120] |  | 67.4% |  |
| NC[C@H](CC(=O)O)c1ccc(Cl)cc1 [(R)-baclofen] |  | 23.1% |  |
| O=C(O)Cc1ccccc1Nc1c(Cl)cccc1Cl [Diclofenac Diethylamine] |  | -21.2% |  |

| SMILES | inhibition of growth at 5 µM [1, 2] | inhibition of growth at 5 µM [1, 3] | also measured |
| --- | --- | --- | --- |
| CCOC(=O)[C@H](CCc1ccccc1)N[C@H]1CCCN2CCC[C@H](C(=O)O)N2C1=O [Cilazapril monohydrate (Inhibace)] | 11.9% |  |  |
| CCCC(=O)OCOC(=O)C1=C(C)NC(C)=C(C(=O)OC)C1c1cccc(Cl)c1Cl (centres unmarked) [Cleviprex (Clevidipine)] | 23.8% |  |  |
| COc1c(OCCCN2CCOCC2)ccc2c1N=C(NC(=O)c1cnc(N)nc1)N1CCN=C21 [BAY80-6946] |  | 40.8% |  |
| Cc1cc(C2CCCCC2)n(O)c(=O)c1 [Ciclopirox (Penlac)] |  | 33.4% |  |
| N[C@@H](CSCCCO)C(=O)O [Fudosteine] |  | 11% |  |
| CC1CCN(CC[C@H]2CCCN2S(=O)(=O)c2cccc(O)c2)CC1 [SB-269970 HCl] |  | -10.7% |  |
| N[C@H](C(=O)O)[C@H](O)c1ccc(O)c(O)c1 [Droxidopa (L-DOPS)] |  | 39.8% |  |
| COc1ccc(S(=O)(=O)Nc2cccnc2Nc2ccc(O)cc2)cc1 [ABT-751] | 22.7% |  |  |
| O=C[C@H](O)[C@@H](O)[C@H](O)[C@H](O)CO [Dextrose (D-glucose)] |  | -33.7% |  |
| Cc1cn(-c2cc(NC(=O)c3ccc(C)c(Nc4nccc(-c5cccnc5)n4)c3)cc(C(F)(F)F)c2)cn1 [Nilotinib (AMN-107)] | 0.1% |  |  |
| Cc1cc(SCc2sc(-c3ccc(C(F)(F)F)c(F)c3)nc2C)ccc1OCC(=O)O [GW0742] |  | 23.4% |  |
| CN(Cc1ccc(C(C)(C)C)cc1)Cc1cccc2ccccc12 [Butenafine HCl] |  | 7.5% |  |
| NC1(c2ccc(-c3nc4ccn5c(=O)[nH]nc5c4cc3-c3ccccc3)cc2)CCC1 [MK-2206 2HCl] | 45.5% |  |  |
| COc1ccc([C@@H]2Sc3ccccc3N(CCN(C)C)C(=O)[C@@H]2OC(C)=O)cc1 [Diltiazem HCl (Tiazac)] |  | -15.8% |  |
| CNCc1ccc(-c2[nH]c3cc(F)cc4c3c2CCNC4=O)cc1 [Rucaparib (AG-014699 , PF-01367338)] | 26.1% |  |  |
| C[C@@]12C[C@@]3(O)O[C@@H](O1)[C@]1(COC(=O)c4ccccc4)[C@H]3C[C@@]12O[C@@H]1O[C@H](CO)[C@@H](O)[C@H](O)[C@H]1O [Paeoniflorin] |  | 0.7% |  |
| COc1cc(OC)c(/C=C/S(=O)(=O)Cc2ccc(OC)c(NCC(=O)O)c2)c(OC)c1 [Rigosertib (ON-01910)] | 0.1% |  |  |
| CN(C(=O)c1ccc(F)cc1C(F)(F)F)C1CCN(c2nnc(-c3ccnn3C)c3ccccc23)CC1 [LY2940680] | 2.1% |  |  |
| C[C@](O)(COc1ccc(C#N)cc1)C(=O)Nc1ccc(C#N)c(C(F)(F)F)c1 [Ostarine (MK-2866)] | 0.7% |  |  |
| Cc1c(Cn2c(C)nc3c(C(=O)O)cc(N4CCOCC4)cc32)cccc1C(F)(F)F [GSK2636771] |  | 1.7% |  |
| COc1cc(OC)c(OC)cc1C=O [Asaraldehyde (Asaronaldehyde)] |  | 10.2% |  |
